Key:
[1] = test system: A549; experiment: Antiproliferative activity against human A549 cells assessed as growth inhibition after 48 hrs by sulforhodamine B assay; format: functional, cell-based; details: A549, 48 h
[2] = test system: SW480; experiment: Antiproliferative activity against human SW480 cells assessed as growth inhibition after 48 hrs by sulforhodamine B assay; format: functional, cell-based; details: SW480, 48 h
[3] = test system: MCF7; experiment: Antiproliferative activity against human MCF7 cells assessed as growth inhibition after 48 hrs by sulforhodamine B assay; format: functional, cell-based; details: MCF7, 48 h
[4] = test system: HepG2; experiment: Antiproliferative activity against human HepG2 cells assessed as growth inhibition after 48 hrs by sulforhodamine B assay; format: functional, cell-based; details: HepG2, 48 h
[5] = test system: A2780; experiment: Antiproliferative activity against human A2780 cells assessed as growth inhibition after 48 hrs by sulforhodamine B assay; format: functional, cell-based; details: A2780, 48 h
[6] = Antiproliferative activity against human A2780/TAX cells assessed as growth inhibition after 48 hrs by sulforhodamine B assay; format: functional, cell-based
[7] = Antiproliferative activity against human HCT8 cells assessed as growth inhibition after 48 hrs by sulforhodamine B assay; format: functional, cell-based; details: HCT-8, 48 h
[8] = Antiproliferative activity against human HCT8/VCT cells assessed as growth inhibition after 48 hrs by sulforhodamine B assay; format: functional, cell-based
[9] = Antiproliferative activity against human A549/CDDP cells assessed as growth inhibition after 48 hrs by sulforhodamine B assay; format: functional, cell-based; details: A549, 48 h
[10] = Antiproliferative activity against human MCF7/DX cells assessed as growth inhibition after 48 hrs by sulforhodamine B assay; format: functional, cell-based
[11] = Antiproliferative activity against mouse NIH/3T3 cells assessed as growth inhibition after 48 hrs by sulforhodamine B assay; format: cell-based; details: NIH3T3, 48 h

SMILES	IC50 [1]	IC50 [2]	IC50 [3]	IC50 [4]	IC50 [5]	IC50 [6]	IC50 [7]	IC50 [8]	IC50 [9]	IC50 [10]	IC50 [11]
C=C1[C@@H](OC(=O)/C=C/c2ccccc2)C[C@H](OC(C)=O)[C@]2(C)[C@@H]1C[C@@H]1C[C@H](OC(C)=O)C(C)=C([C@@H](OC(C)=O)[C@@H]2OC(C)=O)C1(C)C	9.4 µM	> 25 µM	> 25 µM	> 25 µM	9.7 µM	> 25 µM	11 µM	12 µM	7.1 µM	> 25 µM	15 µM
CC(=O)O[C@H]1C(=O)[C@@]2(C)[C@H]([C@H](OC(=O)c3ccccc3)[C@]3(O)C[C@H](O)C(C)=C1C3(C)C)[C@]1(OC(C)=O)CO[C@@H]1C[C@@H]2O [BACCATIN III]	> 25 µM	–	7.4 µM	–	> 25 µM	> 25 µM	12 µM	> 25 µM	24 µM	> 25 µM	> 25 µM
C/C=C(\C)C(=O)N[C@@H](c1ccccc1)[C@@H](O)C(=O)O[C@H]1C[C@@]2(O)[C@@H](OC(=O)c3ccccc3)[C@@H]3[C@]4(OC(C)=O)CO[C@@H]4C[C@H](O[C@@H]4OC[C@@H](O)[C@H](O)[C@H]4O)[C@@]3(C)C(=O)[C@H](OC(C)=O)C(=C1C)C2(C)C	2.2 µM	7.2 µM	0.029 µM	5.8 µM	> 25 µM	17 µM	> 25 µM	> 25 µM	> 25 µM	> 25 µM	> 25 µM
CC(=O)O[C@@]12CO[C@@H]1C[C@H](O[C@@H]1OC[C@@H](O)[C@H](O)[C@H]1O)[C@@]1(C)C(=O)[C@H](O)C3=C(C)[C@@H](OC(=O)[C@H](O)[C@@H](NC(=O)c4ccccc4)c4ccccc4)C[C@@](O)([C@@H](OC(=O)c4ccccc4)[C@H]21)C3(C)C	2.1 µM	16 µM	0.8 µM	3 µM	1.6 µM	> 25 µM	0.26 µM	> 25 µM	2.5 µM	1.4 µM	> 25 µM
CCCCCC(=O)N[C@@H](c1ccccc1)[C@@H](O)C(=O)O[C@H]1C[C@@]2(O)[C@@H](OC(=O)c3ccccc3)[C@@H]3[C@]4(OC(C)=O)CO[C@@H]4C[C@H](O[C@@H]4OC[C@@H](O)[C@H](O)[C@H]4O)[C@@]3(C)C(=O)[C@H](O)C(=C1C)C2(C)C	19 µM	> 25 µM	> 25 µM	> 25 µM	1.5 µM	> 25 µM	8.5 µM	> 25 µM	0.64 µM	> 25 µM	> 25 µM
C=C1[C@@H](O)C[C@H](OC(C)=O)[C@@]2(COC(=O)c3ccccc3)[C@@H](OC(C)=O)[C@H](OC(C)=O)[C@@]3(O)[C@]4(C)OC[C@]3(C)C(CC4=O)[C@@H](OC(C)=O)[C@H]12 [TAXININE M]	12 µM	16 µM	> 25 µM	> 25 µM	> 25 µM	> 25 µM	> 25 µM	> 25 µM	> 25 µM	> 25 µM	> 25 µM
C=C1[C@@H](O[C@@H]2O[C@H](CO)[C@@H](O)[C@H](O)[C@H]2O)C[C@H](OC(C)=O)[C@]2(C)[C@@H]1C[C@@H]1C[C@H](O)C(C)=C([C@@H](OC(C)=O)[C@@H]2OC(C)=O)C1(C)C	2.2 µM	16 µM	> 25 µM	6.1 µM	> 25 µM	> 25 µM	> 25 µM	> 25 µM	> 25 µM	> 25 µM	> 25 µM
C/C=C(\C)C(=O)N[C@@H](c1ccccc1)[C@@H](O)C(=O)O[C@H]1C[C@@]2(O)[C@@H](OC(=O)c3ccccc3)[C@@H]3[C@]4(OC(C)=O)CO[C@@H]4C[C@H](O[C@@H]4OC[C@@H](O)[C@H](O)[C@H]4O)[C@@]3(C)C(=O)[C@H](O)C(=C1C)C2(C)C	1.9 µM	20 µM	0.14 µM	3.9 µM	3.5 µM	> 25 µM	> 25 µM	> 25 µM	3.1 µM	> 25 µM	> 25 µM
CC(=O)O[C@@]12CO[C@@H]1C[C@H](O)[C@@]1(C)C(=O)[C@H](O)C3=C(C)[C@@H](O)C[C@@](O)([C@@H](OC(=O)c4ccccc4)[C@H]21)C3(C)C	21 µM	–	17 µM	–	> 25 µM	16 µM	> 25 µM	> 25 µM	25 µM	> 25 µM	> 25 µM
CC(=O)O[C@H]1C(=O)[C@]2(C)[C@@H](O[C@@H]3OC[C@@H](O)[C@H](O)[C@H]3O)C[C@H]3OC[C@@]3(OC(C)=O)[C@H]2[C@H](OC(=O)c2ccccc2)[C@]2(O)C[C@H](OC(=O)[C@H](O)[C@@H](NC(=O)c3ccccc3)c3ccccc3)C(C)=C1C2(C)C	0.39 µM	5.6 µM	0.16 µM	1.2 µM	0.85 µM	> 25 µM	5.9 µM	> 25 µM	0.92 µM	> 25 µM	> 25 µM
C=C1[C@@H](OC(=O)C[C@H](c2ccccc2)N(C)C)C[C@H](OC(C)=O)[C@]2(C)[C@@H]1C[C@@H]1C[C@H](OC(C)=O)C(C)=C([C@@H](OC(C)=O)[C@@H]2OC(C)=O)C1(C)C	12 µM	> 25 µM	0.04 µM	15 µM	5.1 µM	> 25 µM	> 25 µM	> 25 µM	14 µM	> 25 µM	10 µM
CC(=O)O[C@@]12CO[C@@H]1C[C@@H](O)[C@@]1(C)C(=O)[C@H](O)C3=C(C)[C@@H](OC(=O)[C@H](O)[C@@H](NC(=O)c4ccccc4)c4ccccc4)C[C@@](O)([C@@H](OC(=O)c4ccccc4)[C@H]21)C3(C)C	0.011 µM	0.059 µM	0.012 µM	0.095 µM	0.03 µM	7.2 µM	13 µM	11 µM	0.024 µM	> 25 µM	2.2 µM
C/C=C(\C)C(=O)N[C@@H](c1ccccc1)[C@@H](O)C(=O)O[C@H]1C[C@@]2(O)[C@@H](OC(=O)c3ccccc3)[C@@H]3[C@]4(OC(C)=O)CO[C@@H]4C[C@H](O)[C@@]3(C)C(=O)[C@H](OC(C)=O)C(=C1C)C2(C)C [CEPHALOMANNINE]	0.008 µM	0.033 µM	0.004 µM	0.02 µM	0.013 µM	4.9 µM	> 25 µM	7.2 µM	0.005 µM	7 µM	0.6 µM
CC(=O)O[C@H]1C(=O)[C@@]2(C)[C@H]([C@H](OC(=O)c3ccccc3)[C@]3(O)C[C@H](OC(=O)[C@H](O)[C@@H](NC(=O)OC(C)(C)C)c4ccccc4)C(C)=C1C3(C)C)[C@]1(OC(C)=O)CO[C@@H]1C[C@@H]2O	< 0.002 µM	–	< 0.002 µM	–	< 0.002 µM	0.42 µM	< 0.002 µM	0.89 µM	< 0.002 µM	< 0.002 µM	< 0.002 µM
CC(=O)O[C@H]1C(=O)[C@@]2(C)[C@H]([C@H](OC(=O)c3ccccc3)[C@]3(O)C[C@H](OC(=O)[C@H](O)[C@@H](NC(=O)c4ccccc4)c4ccccc4)C(C)=C1C3(C)C)[C@]1(OC(C)=O)CO[C@@H]1C[C@@H]2O [PACLITAXEL]	–	0.021 µM	–	0.009 µM	–	4.4 µM	0.066 µM	–	–	6.2 µM	0.58 µM
